Consider 16 compounds from patent US20110034469A1, “Heterocyclic Compound” (TAKEDA PHARMACEUTICAL COMPANY LIMITED, priority 2009, published 2011).

Where a name gives a salt, the structure may show the parent alone.

One experiment has as its system human breast cancer cell MDA-MB-231-Luc. In words: In vivo breast cancer cell tumor regression activity. The following applies: orally 100 mg/kg, twice per day for 14 days; subcutaneous MDA-MB-231-Luc tumor in female nude mouse. As for the experimental part: MDA-MB-231 cells (American Tissue Culture Collection) were suspended in DMEM medium (Invitrogen) containing 10% fetal bovine serum (Cell Culture Bioscience), plated in a 12-well plate at 1×10^5 cells/mL, each well 1 mL, and the cells were cultured. After 24 hr of culture, the medium was removed, 100 μL of OMEM (Invitrogen) containing […] of pGL4 CMV-luc/Neo plasmid and Lipofectamin LTX (Invitrogen) was added to each well for transfection according to the attached instruction manual. After the plasmid DNA introduction is operation for 25 min., the medium was exchanged with DMEM medium, and the cells were further cultured for 72 hr. The introduced cells were suspended in a medium containing […] G418 (Sigma Ltd.) by a trypsin (Invitrogen) treatment, and plated again in a 6-well plate. […] Finally, MDA-MB-231 cells capable of growing in a medium containing […] G418 were treated by a limit dilution method to give a single colony. Luciferin (Promega) was added to MDA-MB-231 cells in each clone, and the chemical luminescence level was measured using ARVO (PerkinElmer) to give MDA-MB-231-Luc.
The human breast cancer cell MDA-MB-231-Luc ([…]) obtained in Experimental Example 5 were suspended in Matrigel solution (BD Bioscience) and transplanted into 6-week-old BALE/c female nude mouse (CLEA Japan, Inc.) by subcutaneous injection. Mice with a tumor engrafted at a size in tumor volume of about 200 mm^3 on day 12-15 post-transplantation were selected and 5 per group were used for the experiment. A 0.5% methylcellulose (Wako Pure Chemical Industries, Ltd.) suspension or 0.1 M PBS solution (NaH2PO4/Na2HPO4, pH 5.8) of the compound was orally administered at a dose of 100 mg/kg, twice per day for 14 days. The tumor diameter was measured on the day of start of the administration and the day of completion of the administration, and the tumor volume was obtained from formula 1.
tumor volume=long diameter×short diameter×short diameter×(½) formula 1
The ratio of the value obtained by subtracting tumor volume on the day of completion of the administration from that on the day of start of the administration to the tumor volume on the day of start of the administration was obtained as a tumor regression rate from the formula 2.
tumor regression rate (%)=(tumor volume on the day of start of administration−tumor volume on the day of completion of administration)/tumor volume on the day of start of administration×100 formula 2
`CCO[C@@H]1C[C@@H]2CN(C(=O)[C@@H](NC(=O)[C@H](C)NC)C3CCCCC3)[C@H](C(=O)N[C@@H]3CCOc4ccccc43)CN2C1` [Example 18, (3S,7R,8aR)-2-{(2S)-2-cyclohexyl-2-[(N-methyl-L-alanyl)amino]acetyl}-N-[(4R)-3,4-dihydro-2H-chromen-4-yl]-7-ethoxyoctahydropyrrolo[1,2-a]pyrazine-3-carboxamide]: the “tumor regression rate (%)” value came to 78%.

Take `CN[C@@H](C)C(=O)N[C@H](C(=O)N1C[C@H]2CCCN2C[C@H]1C(=O)N[C@@H]1CCOc2ccccc21)c1ccccc1.Cl.Cl` [Example 19, (3S,8aR)—N-[(4R)-3,4-dihydro-2H-chromen-4-yl]-2-{(2S)-2-[(N-methyl-L-alanyl)amino]-2-phenylacetyl}octahydropyrrolo[1,2-a]pyrazine-3-carboxamide dihydrochloride]: the “tumor regression rate (%)” value was determined as 64%.

Consider `CCO[C@@H]1C[C@@H]2CN(C(=O)[C@@H](NC(=O)[C@H](C)NC)C3CCC(F)(F)CC3)[C@H](C(=O)N[C@@H]3CCOc4ccccc43)CN2C1` [Example 23, (3S,7R,8aR)-2-{(2S)-2-(4,4-difluorocyclohexyl)-2-[(N-methyl-L-alanyl)amino]acetyl}-N-[(4R)-3,4-dihydro-2H-chromen-4-yl]-7-ethoxyoctahydropyrrolo[1,2-a]pyrazine-3-carboxamide], for which the “tumor regression rate (%)” value was 74%.

For the compound `CN[C@@H](C)C(=O)N[C@H](C(=O)N1C[C@H]2CCCN2C[C@H]1C(=O)N[C@@H]1CCOc2cc(F)cc(F)c21)C1CCCCC1` [Example 24, (3S,8aR)-2-{(2S)-2-cyclohexyl-2-[(N-methyl-L-alanyl)amino]acetyl}-N-[(4R)-5,7-difluoro-3,4-dihydro-2H-chromen-4-yl]octahydropyrrolo[1,2-a]pyrazine-3-carboxamide dihydrochloride], the “tumor regression rate (%)” value is 55%.

For `CN[C@@H](C)C(=O)N[C@H](C(=O)N1C[C@H]2CCCN2C[C@H]1C(=O)N[C@H]1c2ccccc2C[C@@H]1O)C1CCCCC1.Cl.Cl` [Example 26, (3S,8aR)-2-{(2S)-2-cyclohexyl-2-[(N-methyl-L-alanyl)amino]acetyl}-N-[(1S,2S)-2-hydroxy-2,3-dihydro-1H-inden-1-yl]octahydropyrrolo[1,2-a]pyrazine-3-carboxamide dihydrochloride], the “tumor regression rate (%)” value is reported as 41%.

Consider `CN[C@@H](C)C(=O)N[C@H](C(=O)N1C[C@H]2CCCN2C[C@H]1C(=O)N[C@@H]1CCOc2ccccc21)C1CCC(F)(F)CC1.Cl.Cl` [Example 32, (3S,8aR)-2-{(2S)-2-(4,4-difluorocyclohexyl)-2-[(N-methyl-L-alanyl)amino]acetyl}-N-[(4R)-3,4-dihydro-2H-chromen-4-yl]octahydropyrrolo[1,2-a]pyrazine-3-carboxamide dihydrochloride], for which the “tumor regression rate (%)” value came to 61%.

The target in another experiment is human XIAP_BIR3 domain purified protein (Homo sapiens, UniProt P98170). In words: Human XIAP binding inhibitory activity (HTRF, b-Smac ligand). Conditions: read-out: XIAP binding inhibitory rate (%) at 3 μM of the test compound. A general note: Time-resolved FRET reads energy transfer from a long-lived donor to a nearby acceptor.
Chain of human XIAP_BIR3 domain purified protein (P98170 252-356 limits assumed): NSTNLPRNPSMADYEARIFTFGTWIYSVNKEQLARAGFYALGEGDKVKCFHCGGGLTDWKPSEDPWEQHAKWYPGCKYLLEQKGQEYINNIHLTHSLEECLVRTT
As to `CN[C@@H](C)C(=O)N[C@@H](CCCNC(=O)OCc1ccccc1)C(=O)N1C[C@H]2CCCN2C[C@H]1C(=O)N[C@@H]1CCCc2ccccc21` [Example 5, benzyl{(4S)-4-[(N-methyl-L-alanyl)amino]-5-oxo-5-[(3S,8aR)-3-((1R)-1,2,3,4-tetrahydronaphthalen-1-ylcarbamoyl)hexahydropyrrolo[1,2-a]pyrazin-2(1H)-yl]pentyl}carbamate dihydrochloride], the inhibition at 3 µM is 99.2%.

Consider `CN[C@@H](C)C(=O)N[C@@H](CCCCNC(=O)OCc1ccccc1)C(=O)N1C[C@H]2CCCN2C[C@H]1C(=O)N[C@@H]1CCCc2ccccc21` [Example 6, benzyl{(5S)-5-[(N-methyl-L-alanyl)amino]-6-oxo-6-[(3S,8aR)-3-[(1R)-1,2,3,4-tetrahydronaphthalen-1-ylcarbamoyl]hexahydropyrrolo[1,2-a]pyrazin-2(1H)-yl]hexyl}carbamate dihydrochloride], for which the inhibition at 3 µM is 98.8%.

On to `CCO[C@@H]1C[C@@H]2CN(C(=O)[C@@H](NC(=O)[C@H](C)NC)C3CCCCC3)[C@H](C(=O)N[C@@H]3CCOc4ccccc43)CN2C1` [Example 18, (3S,7R,8aR)-2-{(2S)-2-cyclohexyl-2-[(N-methyl-L-alanyl)amino]acetyl}-N-[(4R)-3,4-dihydro-2H-chromen-4-yl]-7-ethoxyoctahydropyrrolo[1,2-a]pyrazine-3-carboxamide], for which the inhibition at 3 µM stood at 99.6%.

As to `CN[C@@H](C)C(=O)N[C@H](C(=O)N1C[C@H]2CCCN2C[C@H]1C(=O)N[C@@H]1CCOc2cc(F)cc(F)c21)C1CCCCC1` [Example 24, (3S,8aR)-2-{(2S)-2-cyclohexyl-2-[(N-methyl-L-alanyl)amino]acetyl}-N-[(4R)-5,7-difluoro-3,4-dihydro-2H-chromen-4-yl]octahydropyrrolo[1,2-a]pyrazine-3-carboxamide dihydrochloride], the inhibition at 3 µM was 97.3%.

On to `CN[C@@H](C)C(=O)N[C@H](C(=O)N1C[C@H]2CCCN2C[C@H]1C(=O)N[C@H]1c2ccccc2C[C@H]1O)C1CCCCC1` [Example 27, (3S,8aR)-2-{(2S)-2-cyclohexyl-2-[(N-methyl-L-alanyl)amino]acetyl}-N-[(1S,2R)-2-hydroxy-2,3-dihydro-1H-inden-1-yl]octahydropyrrolo[1,2-a]pyrazine-3-carboxamide dihydrochloride], for which the inhibition at 3 µM turned out to be 97.2%.

For `CN[C@@H](C)C(=O)N[C@H](C(=O)N1C[C@H]2C[C@@](C)(O)CN2C[C@H]1C(=O)N[C@@H]1CCOc2ccccc21)C1CCCCC1` [Example 41, (3S,7R,8aR)-2-{(2S)-2-cyclohexyl-2-[(N-methyl-L-alanyl)amino]acetyl}-N-[(4R)-3,4-dihydro-2H-chromen-4-yl]-7-hydroxy-7-methyloctahydropyrrolo[1,2-a]pyrazine-3-carboxamide dihydrochloride], the inhibition at 3 µM amounted to 93.5%.

For the compound `CN[C@@H](C)C(=O)N[C@H](C(=O)N1C[C@H]2CC(F)(F)CN2C[C@H]1C(=O)N[C@@H]1CCOc2ccccc21)C1CCCCC1` [Example 50, (3S,8aR)-2-{(2S)-2-cyclohexyl-2-[(N-methyl-L-alanyl)amino]acetyl}-N-[(4R)-3,4-dihydro-2H-chromen-4-yl]-7,7-difluorooctahydropyrrolo[1,2-a]pyrazine-3-carboxamide dihydrochloride], the inhibition at 3 µM was determined as 97.1%.

For `CN[C@@H](C)C(=O)N[C@H](C(=O)N1C[C@H]2C[C@@H](OCC3CC3)CN2C[C@H]1C(=O)N[C@@H]1CCOc2ccccc21)C1CCCCC1` [Example 82, (3S,7R,8aR)-2-{(2S)-2-cyclohexyl-2-[(N-methyl-L-alanyl)amino]acetyl}-7-(cyclopropylmethoxy)-N-[(4R)-3,4-dihydro-2H-chromen-4-yl]octahydropyrrolo[1,2-a]pyrazine-3-carboxamide], the inhibition at 3 µM came to 96.6%.

Take `CCO[C@@H]1C[C@@H]2CN(C(=O)[C@@H](NC(=O)[C@H](CC)NC)C3CCCCC3)[C@H](C(=O)N[C@@H]3CCOc4ccccc43)CN2C1` [Example 91, (3S,7R,8aR)-2-[(2S)-2-cyclohexyl-2-{[(2S)-2-(methylamino)butanoyl]amino}acetyl]-N-[(4R)-3,4-dihydro-2H-chromen-4-yl]-7-ethoxyoctahydropyrrolo[1,2-a]pyrazine-3-carboxamide]: the inhibition at 3 µM stood at 95.5%.

Consider `CN[C@@H](C)C(=O)N[C@@H](CCCCNC(=O)c1ccc(C(=O)NCCCC[C@H](NC(=O)[C@H](C)NC)C(=O)N2C[C@H]3CCCN3C[C@H]2C(=O)N[C@@H]2CCCc3ccccc32)cc1)C(=O)N1C[C@H]2CCCN2C[C@H]1C(=O)N[C@@H]1CCCc2ccccc21` [Example 125, N,N′-bis{(5S)-5-[(N-methyl-L-alanyl)amino]-6-oxo-6-[(3S,8aR)-3-[(1R)-1,2,3,4-tetrahydronaphthalen-1-ylcarbamoyl]hexahydropyrrolo[1,2-a]pyrazin-2(1H)-yl]hexyl}benzene-1,4-dicarboxamide], for which the inhibition at 3 µM worked out at 98.9%.

For `CN[C@@H](C)C(=O)N[C@@H](CCCCNC(=O)CCCCCCCCC(=O)NCCCC[C@H](NC(=O)[C@H](C)NC)C(=O)N1C[C@H]2CCCN2C[C@H]1C(=O)N[C@@H]1CCCc2ccccc21)C(=O)N1C[C@H]2CCCN2C[C@H]1C(=O)N[C@@H]1CCCc2ccccc21` [Example 126, N,N′-bis{(5S)-5-[(N-methyl-L-alanyl)amino]-6-oxo-6-[(3S,8aR)-3-[(1R)-1,2,3,4-tetrahydronaphthalen-1-ylcarbamoyl]hexahydropyrrolo[1,2-a]pyrazin-2(1H)-yl]hexyl}decanediamide], the inhibition at 3 µM was found to be 99%.

With `CCO[C@@H]1C[C@@H]2CN(C(=O)[C@@H](NC(=O)[C@H](CC)NC)C3CCC(F)(F)CC3)[C@H](C(=O)N[C@@H]3CCOc4ccccc43)CN2C1` [Example 127, (3S,7R,8aR)-2-[(2S)-2-(4,4-difluorocyclohexyl)-2-{[(2S)-2-(methylamino)butanoyl]amino}acetyl]-N-[(4R)-3,4-dihydro-2H-chromen-4-yl]-7-ethoxyoctahydropyrrolo[1,2-a]pyrazine-3-carboxamide], the inhibition at 3 µM was determined as 98%.
